Test results from patent US20230372274A1, “COMPOSITIONS AND METHODS FOR PERIORBITAL ADMINISTRATION OF EP2 RECEPTOR AGONISTS” (JENIVISION INC., priority 2021, published 2023).

Columns and labels:
[1] = tested on: ocular normotensive cynomolgus monkeys; assay: Intraocular pressure after single periorbital dose (Example 1); assay type: in vivo, cynomolgus monkey; details: single periorbital dose of 10, 20 and 30 micrograms (similar extent), right eye (OD)
Source text: FIG. 2 compares the effect of 9 micrograms bimatoprost (30 pi of 0.03% Lumigan® ophthalmic solution) topical ocular surface administration once daily per eye for 4 days with single dose periorbital skin administration of [(3′-fluoro-4-fluorobiphenyl-3-carbonyl) amino] phenoxyacetic acid isopropyl ester ointment at 10 micrograms, 20 micrograms or 30 micrograms [(3′-fluoro-4-fluorobiphenyl-3-carbonyl) amino] phenoxyacetic acid isopropyl ester on intraocular pressure (TOP) in ocular normotensive Cynomolgus monkeys (Mean±SEM, n=4/group).
(§1) Ocular normotensive cynomolgus monkeys were administered a single dose of JV-GL1 Ointment (20% medium-chain triglycerides and 80% petrolatum (v/v)) to the periorbital skin of the right eye (OD) at JV-GL1 doses of 10 micrograms, 20 micrograms, and 30 micrograms and TOP was measured; Lumigan® eye drops were used as a comparator. […] Compared with baseline, IOP was decreased in the eyes (OD) of animals treated with 10 micrograms, 20 micrograms, and 30 micrograms JVGL-1 to a similar extent (approximately 60%) whereas a much lower decrease occurred for Lumigan® (approximately 30%).

[2] = tested on: ocular normotensive cynomolgus monkeys; assay: Periorbital skin and pupil observations after single periorbital dose of 10-30 micrograms (Example 1); assay type: in vivo, cynomolgus monkey
Procedure: as §1
The incidence rate of pupil constriction in the three test article groups was 100% after 2-3 hours post-dosing.

[3] = tested on: ocular normotensive cynomolgus monkeys; assay: Intraocular pressure after once daily periorbital 0.2 μg/eye ointment (Example 2); assay type: in vivo, cynomolgus monkey
Procedure: Animals were unilaterally treated via periorbital skin administration of [(3′-fluoro-4-fluorobiphenyl-3-carbonyl) amino] phenoxyacetic acid isopropyl ester ointment once daily on Days 15-21. The right eye of the control group (Group 2) received ointment vehicle once daily on Days 8-14 and no treatment on Days 15-21. OD=right eye.
Ocular normotensive cynomolgus monkeys (Group 1, n=3) were unilaterally treated via periorbital skin administration of JV-GL1 ointment once daily in an amount of 0.2 μg in the right eye on Days 15-21 of a study, the results of which are shown in FIG. 3. JV-GL1 was administered as an ointment (20% medium-chain triglycerides and 80% petrolatum (v/v)). The animals were untreated on days 8-14 and IOP monitored daily. Group 2 (n=3) was administered vehicle ointment alone on days 8-14, followed by no treatment on days 15-21 of the study.

[4] = tested on: ocular normotensive cynomolgus monkeys; assay: Local observations after low periorbital doses of ointment (0.2 to 5 micrograms/eye); assay type: in vivo, cynomolgus monkey
Procedure: Separately, ocular normotensive cynomolgus monkeys were administered single doses of the ointment at 0.6 micrograms, 2.0 micrograms or 5.0 micrograms per eye.

[5] = tested on: monkey; assay: Monkey study of periorbital skin administration versus eye drops; assay type: in vivo; details: essentially equal doses
[6] = tested on: human subjects; assay: IOP in human subjects after once daily periorbital ointment (Example 6); assay type: in vivo
Procedure: (§2) Human subjects were treated with JV-GL1 ointment (20% medium-chain triglycerides and 80% petrolatum (v/v)) via periorbital skin administration to both eyes once daily. The human subjects were monitored daily for 9 days, with TOP measurements taken at 0 hours, 0.5 hours, 2 hours, and 8 hours from administration of the dose on Days 0, 1, and 9. IOP measurements were taken 0 hours from administration of the dose on Days 4 and 7.

[7] = tested on: human subjects; assay: Tolerability in human subjects during periorbital dosing (Example 6); assay type: in vivo; details: Groups 1-4, during the dosing period
Procedure: as §2

[8] = target: T1, human recombinant EP2 receptors (Homo sapiens, UniProt P43116); details: cited from earlier work
T1 construct: expressed in transfected cells; host or cells: HEK cells
T1 sequence (P43116 whole entry): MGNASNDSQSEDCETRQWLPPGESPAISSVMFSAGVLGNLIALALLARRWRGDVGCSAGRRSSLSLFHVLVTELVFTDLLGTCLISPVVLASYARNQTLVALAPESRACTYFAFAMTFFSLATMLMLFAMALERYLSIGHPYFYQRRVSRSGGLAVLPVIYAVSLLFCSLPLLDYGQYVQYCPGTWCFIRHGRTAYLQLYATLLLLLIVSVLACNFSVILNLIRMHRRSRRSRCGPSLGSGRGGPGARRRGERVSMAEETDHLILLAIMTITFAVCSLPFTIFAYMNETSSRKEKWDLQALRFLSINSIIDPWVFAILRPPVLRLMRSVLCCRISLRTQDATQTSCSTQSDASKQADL

[9] = target: T2, EP1 receptors (Homo sapiens, UniProt P34995); details: Woodward et al., 2019; cited from earlier work
T2 sequence (P34995 1-402): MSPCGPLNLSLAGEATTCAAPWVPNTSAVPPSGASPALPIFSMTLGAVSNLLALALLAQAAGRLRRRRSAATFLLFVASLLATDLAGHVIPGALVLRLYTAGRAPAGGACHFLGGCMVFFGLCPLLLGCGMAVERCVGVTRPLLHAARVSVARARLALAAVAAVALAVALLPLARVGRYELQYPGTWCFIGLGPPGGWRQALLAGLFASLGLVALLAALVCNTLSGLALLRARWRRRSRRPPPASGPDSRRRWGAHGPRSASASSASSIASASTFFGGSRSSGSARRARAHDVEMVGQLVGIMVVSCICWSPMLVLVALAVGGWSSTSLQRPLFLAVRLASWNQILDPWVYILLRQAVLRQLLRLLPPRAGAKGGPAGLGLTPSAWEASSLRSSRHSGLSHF

[10] = target: T3, EP3 receptors (Homo sapiens, UniProt P43115); details: Woodward et al., 2019; cited from earlier work
T3 sequence (P43115 1-390): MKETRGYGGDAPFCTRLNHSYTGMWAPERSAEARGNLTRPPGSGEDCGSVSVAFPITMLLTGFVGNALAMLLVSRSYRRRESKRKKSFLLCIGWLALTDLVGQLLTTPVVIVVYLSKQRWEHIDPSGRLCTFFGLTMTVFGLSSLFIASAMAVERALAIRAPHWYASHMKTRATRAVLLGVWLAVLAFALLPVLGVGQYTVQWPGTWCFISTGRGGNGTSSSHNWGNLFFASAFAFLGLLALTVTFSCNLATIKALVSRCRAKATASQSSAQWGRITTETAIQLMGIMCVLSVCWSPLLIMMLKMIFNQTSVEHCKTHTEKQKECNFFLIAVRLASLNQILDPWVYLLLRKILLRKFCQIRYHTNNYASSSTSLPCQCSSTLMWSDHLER

[11] = target: EP4 receptors (Homo sapiens, UniProt P35408); details: Woodward et al., 2019; cited from earlier work
Chain of EP4 receptors (P35408 whole entry): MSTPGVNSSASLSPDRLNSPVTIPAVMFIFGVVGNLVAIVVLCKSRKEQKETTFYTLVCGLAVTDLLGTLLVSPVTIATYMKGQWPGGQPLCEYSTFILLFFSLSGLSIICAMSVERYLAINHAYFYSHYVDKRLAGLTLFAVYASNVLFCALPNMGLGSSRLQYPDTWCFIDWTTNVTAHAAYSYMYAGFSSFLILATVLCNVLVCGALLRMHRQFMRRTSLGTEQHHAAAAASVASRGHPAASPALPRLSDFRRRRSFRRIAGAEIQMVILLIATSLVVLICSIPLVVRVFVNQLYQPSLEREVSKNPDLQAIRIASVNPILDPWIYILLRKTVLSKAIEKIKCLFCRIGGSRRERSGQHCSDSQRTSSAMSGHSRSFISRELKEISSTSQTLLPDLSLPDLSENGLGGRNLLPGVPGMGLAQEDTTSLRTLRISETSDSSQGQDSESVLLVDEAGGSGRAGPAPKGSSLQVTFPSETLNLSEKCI

[12] = target: T4, DP receptors (Homo sapiens, UniProt Q13258); details: Woodward et al., 2019; cited from earlier work
T4 sequence (Q13258 1-359): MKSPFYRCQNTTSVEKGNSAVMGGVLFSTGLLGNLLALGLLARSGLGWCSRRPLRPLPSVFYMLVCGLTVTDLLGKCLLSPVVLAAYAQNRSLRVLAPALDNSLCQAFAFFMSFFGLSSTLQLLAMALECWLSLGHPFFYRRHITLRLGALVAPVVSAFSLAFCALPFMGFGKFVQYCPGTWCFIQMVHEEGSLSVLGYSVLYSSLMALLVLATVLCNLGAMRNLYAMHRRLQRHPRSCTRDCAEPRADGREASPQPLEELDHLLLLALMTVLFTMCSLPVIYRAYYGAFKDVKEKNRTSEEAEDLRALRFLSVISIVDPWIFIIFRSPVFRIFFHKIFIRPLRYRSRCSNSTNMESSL

[13] = target: FP receptors (Homo sapiens, UniProt P43088); details: Woodward et al., 2019; cited from earlier work
Chain of FP receptors (P43088 whole entry): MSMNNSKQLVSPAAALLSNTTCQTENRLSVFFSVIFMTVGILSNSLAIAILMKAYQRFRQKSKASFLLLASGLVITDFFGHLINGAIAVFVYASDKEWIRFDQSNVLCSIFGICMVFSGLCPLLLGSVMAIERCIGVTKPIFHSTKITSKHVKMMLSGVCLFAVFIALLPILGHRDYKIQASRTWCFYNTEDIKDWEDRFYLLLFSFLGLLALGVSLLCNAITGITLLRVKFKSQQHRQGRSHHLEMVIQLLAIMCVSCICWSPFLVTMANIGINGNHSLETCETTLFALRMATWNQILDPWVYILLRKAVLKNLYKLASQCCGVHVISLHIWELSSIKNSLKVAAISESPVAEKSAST

[14] = target: IP receptors (Homo sapiens, UniProt P43119); details: Woodward et al., 2019; cited from earlier work
Chain of IP receptors (P43119 whole entry): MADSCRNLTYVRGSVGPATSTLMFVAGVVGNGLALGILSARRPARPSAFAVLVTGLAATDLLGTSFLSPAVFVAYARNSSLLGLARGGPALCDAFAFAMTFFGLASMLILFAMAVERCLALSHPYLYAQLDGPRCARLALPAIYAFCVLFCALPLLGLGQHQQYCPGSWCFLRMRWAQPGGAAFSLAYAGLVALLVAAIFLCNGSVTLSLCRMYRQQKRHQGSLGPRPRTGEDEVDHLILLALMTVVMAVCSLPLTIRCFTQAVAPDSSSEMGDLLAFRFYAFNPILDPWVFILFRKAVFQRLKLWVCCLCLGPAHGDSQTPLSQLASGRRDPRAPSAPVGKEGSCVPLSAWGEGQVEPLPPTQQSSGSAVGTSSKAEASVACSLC

[15] = target: T5, TP receptors (Homo sapiens, UniProt P21731); details: Woodward et al., 2019; cited from earlier work
T5 sequence (P21731 1-343): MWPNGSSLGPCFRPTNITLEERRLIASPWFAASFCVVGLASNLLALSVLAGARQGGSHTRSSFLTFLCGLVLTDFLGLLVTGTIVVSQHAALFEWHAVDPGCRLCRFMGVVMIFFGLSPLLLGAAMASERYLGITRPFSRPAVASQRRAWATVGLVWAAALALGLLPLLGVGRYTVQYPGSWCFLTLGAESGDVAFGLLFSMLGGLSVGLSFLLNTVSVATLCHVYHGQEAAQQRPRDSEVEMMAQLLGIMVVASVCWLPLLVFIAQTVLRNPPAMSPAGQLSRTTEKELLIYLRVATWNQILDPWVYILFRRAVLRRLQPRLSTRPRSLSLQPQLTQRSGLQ

[16] = 10, 20, 30 micrograms single dose

CC(C)OC(=O)COc1cccc(NC(=O)c2cc(-c3cccc(F)c3)ccc2F)c1 [JV-GL1, 3-[(3′-fluoro-4-fluorobiphenyl-3-carbonyl)amino] phenoxyacetic acid isopropyl ester]
IOP decrease compared with baseline [1]: approximately 60%
incidence rate of periorbital skin swelling, dose relation [2, 16]: showed a certain dose dependent relationship
recovery of periorbital skin redness [2, 16]: completely recovered by Day 2
resolution of periorbital skin swelling [2, 16]: disappeared by Day 5
incidence rate of periorbital skin redness ([2]; all three groups (10, 20, 30 micrograms), 2-3 hours post-dosing): 100%
recovery of pupil constriction ([2]; except a single animal in the high-dose group): recovered by Day 15
local findings at 10 to 30 micrograms/eye ([2]; in ointment, periorbital, 10 to 30 micrograms/eye): modest pupil constriction, erythema of the ocular surface and periorbital skin, and swelling of the periorbital skin
incidence rate of pupil constriction ([2]; three groups (10, 20, 30 micrograms), after 2-3 hours post-dosing): 100%
onset of marked decrease in IOP ([3]; 0.2 μg/eye (OD) once daily): as early as one day following initiation of treatment
IOP by the end of the study ([3]; 0.2 μg/eye (OD) once daily Days 15-21, from a starting point of ˜25 mmHg): ~10 mmHg
efficacy and local tolerability at lower doses ([4]; 0.2 to 5 micrograms/eye, periorbital): retained without obvious periorbital skin swelling and hyperemia of the periorbital skin and ocular surface
pupil constriction during the dosing period ([4]; eyes treated with either eye drops or ointment): persistent pupil constriction was observed
resolution of skin redness and swelling ([4]; single doses of ointment at 0.6, 2.0 or 5.0 micrograms per eye): disappeared a few hours to overnight after dosing
efficacy of periorbital skin administration versus eye drops [5]: as effective as eye drops
average change in TOP ([6]; Group 1, 0.30 μg/eye/day over 9 days, 0 hours after dose): −6%
average change in TOP ([6]; Group 1, 0.30 μg/eye/day over 9 days, 0.5 hours after dose): −3%
average change in TOP ([6]; Group 1, 0.30 μg/eye/day over 9 days, 2 hours after dose): 0%
average change in TOP ([6]; Group 1, 0.30 μg/eye/day over 9 days, 8 hours after dose): −4%
average change in TOP ([6]; Group 2, 0.59 μg/eye/day over 9 days, 0 hours after dose): −14%
average change in TOP ([6]; Group 2, 0.59 μg/eye/day over 9 days, 0.5 hours after dose): −10%
average change in TOP ([6]; Group 2, 0.59 μg/eye/day over 9 days, 2 hours after dose): −16%
average change in TOP ([6]; Group 2, 0.59 μg/eye/day over 9 days, 8 hours after dose): −12%
average change in TOP ([6]; Group 3, 0.99 μg/eye/day over 9 days, 0 hours after dose): −11%
average change in TOP ([6]; Group 3, 0.99 μg/eye/day over 9 days, 0.5 hours after dose): −16%
average change in TOP ([6]; Group 3, 0.99 μg/eye/day over 9 days, 2 hours after dose): −16%
average change in TOP ([6]; Group 3, 0.99 μg/eye/day over 9 days, 8 hours after dose): −15%
average change in TOP ([6]; Group 4, 1.92 μg/eye/day over 9 days, 0 hours after dose): −19%
average change in TOP ([6]; Group 4, 1.92 μg/eye/day over 9 days, 0.5 hours after dose): −22%
average change in TOP ([6]; Group 4, 1.92 μg/eye/day over 9 days, 2 hours after dose): −20%
average change in TOP ([6]; Group 4, 1.92 μg/eye/day over 9 days, 8 hours after dose): −14%
average change in TOP ([6]; Group 5, 3.99 μg/eye/day over 9 days, 0 hours after dose): −13%
average change in TOP ([6]; Group 5, 3.99 μg/eye/day over 9 days, 0.5 hours after dose): −13%
average change in TOP ([6]; Group 5, 3.99 μg/eye/day over 9 days, 2 hours after dose): −18%
average change in TOP ([6]; Group 5, 3.99 μg/eye/day over 9 days, 8 hours after dose): −18%
dose dependence of TOP reduction ([6]; Groups 1, 2, 3 and 4 (0.30 to 1.92 μg/eye/day)): dose-dependent trend in TOP reduction
irritation or discomfort associated with AE of mild periorbital erythema [7]: did not report any irritation or discomfort

O=C(O)COc1cccc(NC(=O)c2cc(-c3cccc(F)c3)ccc2F)c1 [JV-GL1 free acid, 3-[(3′-fluoro-4-fluorobiphenyl-3-carbonyl)amino] phenoxyacetic acid]
maximal elevation of cAMP levels ([8]; HEK cells over-expressing human recombinant EP2 receptors, versus PGE2): comparable to that of the endogenous agonist PGE2
EP2 receptor agonism ([8]; Woodward et al., 2019): potent and full EP2 receptor agonist
affinity for EP1 receptors [9]: negligible
affinity for EP3 receptors [10]: negligible
affinity for EP4 receptors [11]: negligible
affinity for DP receptors [12]: negligible
affinity for FP receptors [13]: negligible
affinity for IP receptors [14]: negligible
affinity for TP receptors [15]: negligible
